Results from patent US20190153024A1, “NOVEL SALTS AND POLYMORPHS OF SCY-078” (priority 2015, published 2019).

What was measured:
[1] = Dynamic Vapor Sorption (DVS) water uptake; assay type: physicochemical; settings: for solid form by XRPD after DVS: after DVS experiment
Procedure: Dynamic Vapor Sorption (DVS)—The term “DVS” means the procedure described in below. The relative humidity at 25° C. was calibrated against deliquescence point of LiCl, Mg(NO3)2 and KCl.
The DVS of SCY-078 salts were tested according to the above method, using a 10-20 mg sample size. The DVS was measured using a Surface Measurement Systems (SMS) DVS Intrinsic.

[2] = pH value of saturated SCY-078 salt solutions in water; assay type: physicochemical; settings: saturated salt solution in H2O, room temperature; for pH 1 hr: equilibrated 1 hour; for pH 24 hrs: equilibrated 24 hours
Procedure: To test the pH, a solution of each compound was equilibrated at room temperature using a rolling incubator (25 rpm) for 1 hour and 24 hours before measurement.

[3] = Chemical and physical stability of SCY-078 salts on storage (25° C./60% RH, 40° C./75% RH, 60° C.); assay type: physicochemical; settings: Type M 4 days, Type S 1 week
From the text: For all compounds tested other than the trifluoroacetate salts (Type A and B) and the HCl Type I and II salts, the conditions and parameters used for measuring solubility are shown in Table 2A and for measuring stability are showing in Table 3A. The conditions and parameters used for the solubility of the trifluoroacetate salts (Type A and B) and the HCl Type I and II salts are shown in Table 2B and for stability are shown in Table 3B.

[4] = Physical and chemical stability of trifluoroacetate Types A and B and HCl Type I for 1, 2, 4 and 8 weeks; assay type: physicochemical
Procedure: High Power Liquid Chromatography (HPLC) Method—An Agilent 1260 HPLC with DAD detector was utilized to test solubility or to test purity and stability. […] System suitability was tested by injecting standard solutions five times in each sample sequence, and the relative standard deviation of the peak areas was less than 2%.
Physical and chemical stability evaluation of trifluoroacetate Type A, trifluoroacetate Type B, and HCl Type I was performed at 25° C./60% RH, 40° C./75% RH and 60° C. for 1, 2, 4 and 8 weeks. In the experiments, approximately 20 mg of solid was placed into a 1.5-mL glass vial. The vials were stored under 25° C./60% RH (uncapped), 40° C./75% RH (uncapped) and 60° C. (capped) conditions for 8 weeks. XRPD analysis was then employed to check the crystalline form of the solid, and HPLC was utilized to determine the purity profile at 1, 2, 4 and 8 weeks. […] The solid form change of trifluoroacetate Type A at 2 and 4 weeks was postulated to the air-exposure when the sample was taken out for XRPD characterization.

[5] = Kinetic solubility of trifluoroacetate Types A and B and HCl Type I (alternative procedure: SGF, FaSSIF and FeSSIF alternative media, acetate pH 5.5, phosphate pH 6.0 alternative media); settings: for Form change: residual solid by XRPD
Procedure: An alternative media (“FaSSIF alternative media”) was used to study the trifluoroacetate salts (Type A and B) and the HCl Type I salt. More specifically, the media was prepared by weighing 0.17 g of sodium phosphate monobasic (NaH2PO4, anhydrous), 0.021 g of sodium hydroxide, and 0.31 g of sodium chloride into a 50-mL volumetric flask and was dissolve with approximately 48 mL of purified water. The pH was adjusted to exactly 6.5 using 1 M HCl or 1 M NaOH and diluted to volume with purified water. 0.11 g of SIF powder was then added, stirred and sonicated until all the powder was completely dissolved. The solution was equilibrated for 2 hours at RT before use. The solution can be stored at RT for 48 hours or 4° C. for 7 days and should be equilibrated to RT before use
An alternative media (“FeSSIF alternative media”) was used to study the trifluoroacetate salts (Type A and B) and the HCl Type I salt. More specifically, the media was prepared by transferring 0.41 mL of glacial acid and weighing 0.20 g of sodium hydroxide, 0.59 g of sodium chloride into a 50-mL volumetric flask. This was dissolved with approximately 48 mL of purified water. The pH was adjusted to exactly 5.0 using 1 M HCl or 1 M NaOH and diluted to volume with purified water. 0.56 g of SIF powder was added, stirred and sonicated until all the powder is completely dissolved. The solution can be stored at RT for 48 hours or 4° C. for 7 days and should be equilibrated to RT before use.
Acetate Buffer (pH 5.5) Preparation—The acetate buffer (pH 5.5) used for the trifluoroacetate salts (Type A and B) and the HCl Type I salt was prepared by placing 0.60 g sodium acetate (NaC2H3O2.3H2O) in a 100-mL volumetric flask, adding 3 mL of 2 M acetic acid solution, and then adding purified water to volume.
An alternative media (“phosphate (pH 6.0) alternative media”) was used to study the trifluoroacetate salts (Type A and B) and the HCl Type I salt. More specifically, the media was prepared by dissolving 2.72 g of 0.2 M monobasic potassium phosphate (KH2PO4) in purified water, and diluting with purified water t 100 mL. 0.8 g of 0.2 M sodium hydroxide in purified water was diluted with purified water to 100 mL. Then 50 mL of the 0.2 M monobasic potassium phosphate solution was placed in a 200-mL volumetric flask, 5.6 mL of 0.2 M sodium hydroxide solution was added, and then purified water was added to volume.
The trifluoroacetate salts (Type A and B) and the HCl Type I salt were tested using the following alternative procedure. First, 15 mg, 36 mg or 90 mg solid was weighted into a 4-mL plastic tube, and 3 mL of relevant media was added before leaving the suspension on a rolling incubator (25 r/min). For SCF, 90 mg of solid was used. For FaSSIF, acetate buffer (pH 5.5), and phosphate buffer (pH 6.0), 15 mg solid was used. For FeSSIF, 36 mg of solid was used. 1.0 mL aliquot of the suspension was sampled for centrifugation with the supernatant submitted for HPLC and pH measurement and solid for XRPD characterization at 1 hr, 4 hr and/or 24 hrs.
The solubility of trifluoroacetate Type A, Type B and HCl Type I was measured in SGF at ambient temperature. Approximately 90 mg of solid sample was weighted into a 4-mL centrifuge tube, and 3 mL of SGF buffer was added before leaving the suspension on a rolling incubator (25 r/min). 1.0 mL aliquot of the suspension was sampled for centrifugation (10000 rpm, 3 mins) the supernatant was analyzed by HPLC and pH measurement and solid by XRPD characterization at 1 hr, 4 hr and 24 hrs, respectively.
The solubility of trifluoroacetate Type A, Type B and hydrochloride Type I was measured in the FaSSIF alternative media at ambient temperature. Approximately 15 mg of solid sample was weighted into a 4-mL plastic tube, and 3 mL of the media was added before leaving the suspension on a rolling incubator (25 r/min).

[6] = 25° C./60% RH (uncapped), 1 week
[7] = 25° C./60% RH (uncapped), 2 weeks
[8] = 25° C./60% RH (uncapped), 4 weeks
[9] = 25° C./60% RH (uncapped), 8 weeks
[10] = 40° C./75% RH (uncapped), 1 week
[11] = 40° C./75% RH (uncapped), 2 weeks
[12] = 40° C./75% RH (uncapped), 4 weeks
[13] = 40° C./75% RH (uncapped), 8 weeks

CC(C)[C@@H](C)[C@@]1(C)CC[C@]2(C)[C@H]3CC[C@@H]4[C@@]5(COC[C@]4(C)[C@@H](OC[C@](C)(N)C(C)(C)C)[C@H](n4ncnc4-c4ccncc4)C5)C3=CC[C@@]2(C)[C@@H]1C(=O)O.O=C(O)CNC(=O)c1ccccc1.O=C(O)CNC(=O)c1ccccc1 [SCY-078 hippurate Type B]
water uptake (DVS) ([1]; 25° C., 80% RH): ~3.5% | solid form by XRPD after DVS [1]: converted to SCY-078 hippurate Type A | pH 1 hr [2]: 4.6 | pH 24 hrs [2]: 4.2

CC(C)[C@@H](C)[C@@]1(C)CC[C@]2(C)[C@H]3CC[C@@H]4[C@@]5(COC[C@]4(C)[C@@H](OC[C@](C)(N)C(C)(C)C)[C@H](n4ncnc4-c4ccncc4)C5)C3=CC[C@@]2(C)[C@@H]1C(=O)O.CS(=O)(=O)O [SCY-078 mesylate Type A]
water uptake (DVS) ([1]; 25° C., 80% RH): 11.5% | solid form by XRPD after DVS [1]: no form change | pH 1 hr [2]: 3.4 | pH 24 hrs [2]: 3.6

CC(C)[C@@H](C)[C@@]1(C)CC[C@]2(C)[C@H]3CC[C@@H]4[C@@]5(COC[C@]4(C)[C@@H](OC[C@](C)(N)C(C)(C)C)[C@H](n4ncnc4-c4ccncc4)C5)C3=CC[C@@]2(C)[C@@H]1C(=O)O.O=C(O)CC(O)(CC(=O)O)C(=O)O [SCY-078 citrate Type S]
water uptake (DVS) ([1]; 25° C., 80% RH): 8.2% | solid form by XRPD after DVS [1]: peak shifts | physical and chemical stability ([3]; closed dish 60° C.): physically and chemically stable | physical and chemical stability ([3]; open dish 25° C., 60% RH): Diffraction peak shifts were observed | physical and chemical stability ([3]; open dish 40° C., 75% RH): Diffraction peak shifts were observed

CC(C)[C@@H](C)[C@@]1(C)CC[C@]2(C)[C@H]3CC[C@@H]4[C@@]5(COC[C@]4(C)[C@@H](OC[C@](C)(N)C(C)(C)C)[C@H](n4ncnc4-c4ccncc4)C5)C3=CC[C@@]2(C)[C@@H]1C(=O)O.O=P(O)(O)O [SCY-078 phosphate Type A]
water uptake (DVS) ([1]; 25° C., 80% RH): 12.5% | solid form by XRPD after DVS [1]: no form change | pH 1 hr [2]: 3.4 | pH 24 hrs [2]: 3.6

CC(C)[C@@H](C)[C@@]1(C)CC[C@]2(C)[C@H]3CC[C@@H]4[C@@]5(COC[C@]4(C)[C@@H](OC[C@](C)(N)C(C)(C)C)[C@H](n4ncnc4-c4ccncc4)C5)C3=CC[C@@]2(C)[C@@H]1C(=O)O.Cl [SCY-078 HCl Type I]
water uptake (DVS) ([1]; 25° C./80% RH): 6.1 wt % | solid form by XRPD after DVS [1]: No form change | HPLC purity [4, 6]: 99.9% | Solid form [4, 6]: Type I | HPLC purity [4, 7]: 99.9% | Solid form [4, 7]: Type I | HPLC purity [4, 8]: 99.9% | Solid form [4, 8]: Type I | HPLC purity [4, 9]: 99.9% | Solid form [4, 9]: Type I | physical and chemical stability ([4]; 25° C./60% RH, 40° C./75% RH and 60° C., 8 weeks): physically and chemically stable | HPLC purity [4, 10]: 99.9% | Solid form [4, 10]: Type I | HPLC purity [4, 11]: 99.9% | Solid form [4, 11]: Type I | HPLC purity [4, 12]: 99.9% | Solid form [4, 12]: Type I | HPLC purity [4, 13]: 99.9% | Solid form [4, 13]: Type I | HPLC purity ([4]; 60° C. (capped), 1 week): 99.9% | Solid form ([4]; 60° C. (capped), 1 week): Type I | HPLC purity ([4]; 60° C. (capped), 2 weeks): 99.9% | Solid form ([4]; 60° C. (capped), 2 weeks): Type I | HPLC purity ([4]; 60° C. (capped), 4 weeks): 99.9% | Solid form ([4]; 60° C. (capped), 4 weeks): Type I | HPLC purity ([4]; 60° C. (capped), 8 weeks): 99.9% | Solid form ([4]; 60° C. (capped), 8 weeks): Type I | Initial HPLC purity ([4]; Initial): 99.9% | Form change ([5]; FaSSIF alternative media, 1 hr): No | Form change ([5]; FaSSIF alternative media, 4 hrs): No | Form change ([5]; FaSSIF alternative media, 24 hrs): No | form change of residual solid in FaSSIF alternative media ([5]; FaSSIF alternative media, ambient temperature): no form change was observed | Form change ([5]; FeSSIF alternative media, 1 hr): No | Form change ([5]; FeSSIF alternative media, 4 hrs): No | Form change ([5]; FeSSIF alternative media, 24 hrs): No | form change of residual solid in FeSSIF alternative media ([5]; FeSSIF alternative media, ambient temperature): no form change was observed | Form change ([5]; SGF, 1 hr): No | Form change ([5]; SGF, 4 hrs): No | Form change ([5]; SGF, 24 hrs): No | form change of residual solid in SGF ([5]; SGF, ambient temperature): no form change was observed | form change of residual solid in acetate buffer ([5]; acetate buffer pH 5.5, ambient temperature): converted to Type II | solubility in acetate buffer (comparison) ([5]; acetate buffer pH 5.5, ambient temperature, 4 hr and 24 hrs): lower solubility | Form change ([5]; phosphate (pH 6.0) alternative media, 4 hrs): No | Form change ([5]; phosphate (pH 6.0) alternative media, 24 hrs): No | form change of residual solid in phosphate (pH 6.0) alternative media ([5]; phosphate (pH 6.0) alternative media, ambient temperature): No form change was observed | solubility in phosphate (pH 6.0) alternative media (comparison) ([5]; phosphate (pH 6.0) alternative media, ambient temperature, 4 hr and 24 hrs): higher solubility

CC(C)[C@@H](C)[C@@]1(C)CC[C@]2(C)[C@H]3CC[C@@H]4[C@@]5(COC[C@]4(C)[C@@H](OC[C@](C)(N)C(C)(C)C)[C@H](n4ncnc4-c4ccncc4)C5)C3=CC[C@@]2(C)[C@@H]1C(=O)O.O=C(O)CC(O)(CC(=O)O)C(=O)O [SCY-078 citrate Type M]
water uptake (DVS) ([1]; 25° C., 80% RH): 11.0% | solid form by XRPD after DVS [1]: converts to partially amorphous | physical and chemical stability ([3]; closed dish 60° C.): impurity of SCY-078 citrate Type M increased | physical and chemical stability ([3]; open dish 25° C., 60% RH): physically and chemically stable | physical and chemical stability ([3]; open dish 40° C., 75% RH): One diffraction peak change and partial crystallinity loss
